From patent US9975880B2, “Imidazolidine-2,4-dione dervatives” (IPSEN PHARMA S.A.S., priority 2013, dated 2018)
In brackets after ≈: the same amount, converted by molar mass. Like-named read-outs stand apart in the source and are kept apart here.

How the values were obtained:
LNCaP cells = assay: Anti-proliferative activity on LNCaP in complete medium; assay type: cell-based; conditions: Homo sapiens, 144 h
Protocol: The anti-proliferative activity of the compounds of the present invention is determined on LNCaP in complete medium by applying the following experimental procedure:
The LNCaP cell type (ATCC, 1740) originates from a prostate carcinoma. This line expresses the androgen receptor and is hormone-dependent.
Maintenance of the LNCaP line is carried out in complete culture medium: RPMI, 10% of fetal calf serum, 2 mM glutamine, 100 U/ml penicillin, 0.1 mg/ml of streptomycin and 0.01M HEPES, 1 mM sodium pyruvate, […]. • Seeding the plates:
The LNCaP line is seeded at 20,000 cells/well in 90 μl of complete medium in 96-well plates coated with poly-D-lysine (Biocoat, Costar). • Treatment of the cells: 24 h after the seeding, the cells are treated with 10 μl/well of compound diluted in the culture medium. The concentrations used are the following: 1 nM/10/30/100/300/1000/3000/10,000 nM. The cells are incubated for 144 h at 37° C., 5% CO2. • Reading: After incubation for 6 days, cell proliferation was determined by Cell-Titer-Glow (CTG) Luminescent Cell Viability Assay. • Results: The experiments are carried out in duplicate and the best compounds are tested twice. […] Anti-Proliferative Activity on DU145 in Complete Medium

VCaP cells = assay: Anti-proliferative activity on VCaP in complete medium; assay type: cell-based; conditions: Homo sapiens, Cell-Titer-Glow, read-out: IC50 on the VCaP cells in culture (inhibition of cell proliferation by 50%)
Protocol: • The cells of the VCaP line (ATCC CRL-2876) are seeded at 20000 cells/well in 90 μl of complete medium in 96-well plates coated with poly-D-lysine (Biocoat, Costar). • Treatment of the cells: 24 h after the seeding, the cells are treated with 10 μl/well of compound diluted in the culture medium. The concentrations used are the following: 1 nM/10/30/100/300/1000/3000/10,000 nM. The cells are incubated for 144 h at 37° C., 5% CO2. • Reading: After incubation for […], cell proliferation was determined by Cell-Titer-Glow (CTG) Luminescent Cell Viability Assay • Results: The experiments are carried out in duplicate and the best compounds are tested twice. A concentration value inhibiting the cell proliferation by 50% (IC50) is calculated.

DU145 cells = assay: Anti-proliferative activity on DU145 in complete medium; assay type: cell-based; conditions: DU145 (no androgen receptor), 144 h, up to 10,000 nM, Cell-Titer-Glow
Protocol: It is used to evaluate the selectivity of the compounds for androgen receptor expressing cells. No activity of the compounds is expected. • The cells of the DU145 line (ATCC HTB-81) are seeded at 800 cells/well in 90 μl of complete medium in 96-well plates coated with poly-D-lysine (Biocoat, Costar). • Treatment of the cells: 24 h after the seeding, the cells are treated with 10 μl/well of compound diluted in the culture medium. The concentrations used are the following: 1 nM/10/30/100/300/1000/3000/10,000 nM. The cells are incubated for 144 h at 37° C., 5% CO2. • Reading: After incubation for 6 days, cell proliferation was determined by Cell-Titer-Glow (CTG) Luminescent Cell Viability Assay • Results: The experiments are carried out in duplicate and the best compounds are tested twice. A concentration value inhibiting the cell proliferation by 50% (IC50) is calculated.

Evaluation of solubility = assay type: physicochemical; conditions: aqueous buffer, kinetic from dmso stock; 100 mM potassium phosphate buffer pH 7.4, 0.1% DMSO, target 100 μM, 1 hour room temperature, LC-MS/MS
Protocol: Test compounds were prepared as stock solutions at 100 mM in DMSO. The stock solutions were diluted, in duplicate, into 100 mM potassium phosphate buffer (pH 7.4) to a target concentration of 100 μM with a final DMSO concentration of 0.1%. The solutions were shaken at 1000 rpm for 1 hour at room temperature followed by centrifugation for 10 minutes at 1200 rpm to precipitate un-dissolved particles. The supernatants were transferred to new tubes and the samples were further prepared as follows: • Undiluted: 5 μL of supernatant to 95 μL of ACN containing internal standard (IS) • 1:10 diluted: 10 μL of the supernatant into 90 μL K-buffer, mix, then transfer 5 μL of 1:10 diluted samples to 95 μL ACN containing IS • 1:100 diluted: 10 μL of the supernatant into 990 μL K-buffer, mix, then transfer 5 μL of 1:100 diluted samples to 95 μL of ACN containing IS
Samples (undiluted, 1:10 diluted, and 1:100 diluted) along with the standards were analyzed by LC-MS/MS.

[1] = complete medium, 144 h incubation, Cell-Titer-Glow, read-out: IC50 on the LNCaP cells in culture (inhibition of cell proliferation by 50%)
[2] = read-out: IC50 on the LNCaP cells in culture (inhibition of cell proliferation by 50%), LNCaP, complete medium, 144 h incubation, Cell-Titer-Glow

Structure (SMILES) | IC50 (LNCaP cells; [1]) | IC50 (VCaP cells) | IC50 on DU145 cells (anti-proliferative effect) (DU145 cells) | solubility at 1 h (Evaluation of solubility) | IC50 (LNCaP cells; [2])
CC1(C)C(=O)N(c2ccc(S(C)(=O)=O)c(C(F)(F)F)c2)C(=O)N1C/C=C\Cn1cc(-c2ccc(S(C)(=O)=O)c(C(F)(F)F)c2)cn1 [Example 3, (Z)-5,5-dimethyl-3-(4-(methylsulfonyl)-3-(trifluoromethyl)phenyl)-1-(4-(4-(4-(methylsulfonyl)-3-(trifluoromethyl)phenyl)-1H-pyrazol-1-yl)but-2-en-1-yl)imidazolidine-2,4-dione] | < 1500 nM | ≤ 5000 nM | no measurable IC50 | 0.2 µM (≈ 0.139 µg/mL) | 
CC1(C)C(=O)N(c2ccc(C#N)c(C(F)(F)F)c2)C(=O)N1C/C=C\CN1CCN(c2ccc(S(C)(=O)=O)c(C(F)(F)F)c2)C1=O [Example 10, (Z)-4-(4,4-dimethyl-3-(4-(3-(4-(methylsulfonyl)-3-(trifluoromethyl)phenyl)-2-oxoimidazolidin-1-yl)but-2-en-1-yl)-2,5-dioxoimidazolidin-1-yl)-2-(trifluoromethyl)benzonitrile] |  | ≤ 5000 nM | no measurable IC50 |  | 
CC1(C)C(=O)N(c2ccc(C#N)c(C(F)(F)F)c2)C(=O)N1C/C=C\CN1CCC(c2ccc(C#N)c(C(F)(F)F)c2)C1 (centres unmarked) [Example 12, (Z)-4-(1-(4-(3-(4-cyano-3-(trifluoromethyl)phenyl)-5,5-dimethyl-2,4-dioxoimidazolidin-1-yl)but-2-en-1-yl)pyrrolidin-3-yl)-2-(trifluoromethyl)benzonitrile] | < 1500 nM | ≤ 5000 nM | no measurable IC50 |  | 
CC1(C)C(=O)N(c2ccc(C#N)c(C(F)(F)F)c2)C(=O)N1C/C=C\CN1CCN(c2ccc(S(C)(=O)=O)c(Cl)c2)S1(=O)=O [Example 17, (Z)-4-(3-(4-(5-(3-chloro-4-(methylsulfonyl)phenyl)-1,1-dioxido-1,2,5-thiadiazolidin-2-yl)but-2-en-1-yl)-4,4-dimethyl-2,5-dioxoimidazolidin-1-yl)-2-(trifluoromethyl)benzonitrile] |  |  | no measurable IC50 | 1.97 µM (≈ 1.3 µg/mL) | < 1500 nM
CC1(C)CN(c2ccc(C#N)c(C(F)(F)F)c2)C(=O)N1C/C=C\CN1C(=O)N(c2ccc(S(C)(=O)=O)c(C(F)(F)F)c2)C(=O)C1(C)C [Example 9, (Z)-4-(3-(4-(5,5-dimethyl-3-(4-(methylsulfonyl)-3-(trifluoromethyl)phenyl)-2,4-dioxoimidazolidin-1-yl)but-2-en-1-yl)-4,4-dimethyl-2-oxoimidazolidin-1-yl)-2-(trifluoromethyl)benzonitrile] |  |  | no measurable IC50 |  | < 1500 nM
CC1(C)C(=O)N(c2ccc(C#N)c(C(F)(F)F)c2)C(=O)N1C/C=C\CN1CC(c2ccc(S(C)(=O)=O)c(Cl)c2)CC1=O (centres unmarked) [Example 14, (Z)-4-(3-(4-(4-(3-chloro-4-(methylsulfonyl)phenyl)-2-oxopyrrolidin-1-yl)but-2-en-1-yl)-4,4-dimethyl-2,5-dioxoimidazolidin-1-yl)-2-(trifluoromethyl)benzonitrile] |  | ≤ 5000 nM | no measurable IC50 | 24.1 µM (≈ 15 µg/mL) | 
CC1(C)C(=O)N(c2ccc(C#N)c(C(F)(F)F)c2)C(=O)N1C/C=C\CN1CC(c2ccc(S(C)(=O)=O)c(C(F)(F)F)c2)CC1=O (centres unmarked) [Example 13, (Z)-4-(4,4-dimethyl-3-(4-(4-(4-(methylsulfonyl)-3-(trifluoromethyl)phenyl)-2-oxopyrrolidin-1-yl)but-2-en-1-yl)-2,5-dioxoimidazolidin-1-yl)-2-(trifluoromethyl)benzonitrile] | < 1500 nM | ≤ 5000 nM | no measurable IC50 |  | 
Cc1nn(C/C=C\CN2C(=O)N(c3ccc(C#N)c(C(F)(F)F)c3)C(=O)C2(C)C)c(C)c1-c1ccc(S(C)(=O)=O)c(C(F)(F)F)c1 [Example 6, (Z)-4-(3-(4-(3,5-dimethyl-4-(4-(methylsulfonyl)-3-(trifluoromethyl)phenyl)-1H-pyrazol-1-yl)but-2-en-1-yl)-4,4-dimethyl-2,5-dioxoimidazolidin-1-yl)-2-(trifluoromethyl)benzonitrile] |  |  | no measurable IC50 | 4.38 µM (≈ 2.92 µg/mL) | 
CC1(C)C(=O)N(c2ccc(S(C)(=O)=O)c(C(F)(F)F)c2)C(=O)N1C/C=C\CN1CC(c2ccc(S(C)(=O)=O)c(C(F)(F)F)c2)CC1=O (centres unmarked) [Example 15, (Z)-5,5-dimethyl-3-(4-(methylsulfonyl)-3-(trifluoromethyl)phenyl)-1-(4-(4-(4-(methylsulfonyl)-3-(trifluoromethyl)phenyl)-2-oxopyrrolidin-1-yl)but-2-en-1-yl)imidazolidine-2,4-dione] | < 1500 nM |  | no measurable IC50 | 1.9 µM (≈ 1.34 µg/mL) | 
CC1(C)C(=O)N(c2cnc(C#N)c(C(F)(F)F)c2)C(=O)N1C/C=C\Cn1cc(-c2ccc(S(C)(=O)=O)c(C(F)(F)F)c2)cn1 [Example 4, (Z)-5-(4,4-dimethyl-3-(4-(4-(4-(methylsulfonyl)-3-(trifluoromethyl)phenyl)-1H-pyrazol-1-yl)but-2-en-1-yl)-2,5-dioxoimidazolidin-1-yl)-3-(trifluoromethyl)picolinonitrile] |  |  | no measurable IC50 | 1.7 µM (≈ 1.09 µg/mL) | 
CC1(C)C(=O)N(c2cnc(C#N)c(C(F)(F)F)c2)C(=O)N1C/C=C\Cn1cc(-c2ccc(S(C)(=O)=O)c(Cl)c2)cn1 [Example 5, (Z)-5-(3-(4-(4-(3-chloro-4-(methylsulfonyl)phenyl)-1H-pyrazol-1-yl)but-2-en-1-yl)-4,4-dimethyl-2,5-dioxoimidazolidin-1-yl)-3-(trifluoromethyl)picolinonitrile] |  |  | no measurable IC50 | 0.65 µM (≈ 0.395 µg/mL) | 
CC1(C)C(=O)N(c2ccc(C#N)c(C(F)(F)F)c2)C(=O)N1C/C=C\CN1CCN(c2ccc(S(C)(=O)=O)c(Cl)c2)C1=O [Example 11, (Z)-4-(3-(4-(3-(3-chloro-4-(methylsulfonyl)phenyl)-2-oxoimidazolidin-1-yl)but-2-en-1-yl)-4,4-dimethyl-2,5-dioxoimidazolidin-1-yl)-2-(trifluoromethyl)benzonitrile] |  |  | no measurable IC50 | 0.34 µM (≈ 0.212 µg/mL) | < 1500 nM
